Here are results for 5 compounds from PMC4718952, “A simple nonradioactive method for the determination of the binding affinities of antibodies induced by hapten bioconjugates for drugs of abuse” (Analytical and Bioanalytical Chemistry, 2015).

Data set [1] in a line: Stability of heroin and its metabolites in DPBS without sera. The class given is physicochemical.
For data set [2] the following is noted: in humans, Fig. 1a; cited from earlier work.
A short description of data set [3]: Stability of heroin and its metabolites in dilute mouse sera. The settings on record: 24 h.
Data set [4] concerns plasma proteins. Briefly: Binding of D3-tracers to plasma proteins in dilute week 0 (preimmunized) sera by ED. It is filed as in vitro ADME, mouse. The settings on record: ≥1:400 dilution of week 0 (preimmunized) sera.
Method: Week 0 and week 9 sera were considered as negative and anti-hapten sera, respectively. Anti-hapten sera solutions were prepared by diluting the sera in DPBS (1:400, 1:800, or 1:600). Dialysis buffer was prepared by diluting the corresponding negative sera in DPBS (1:400, 1:800, or 1:600). Competitive inhibitors with different initial concentrations were prepared in the dialysis buffer. For the test samples, anti-hapten sera/D3-tracer was run against the negative sera/inhibitors at the same sera dilution. […] For negative controls, negative sera/D3-tracer was run against the negative sera at the same sera dilution.
Data set [5] has as its system plasma proteins. To be noted: neat plasma/sera; cited from earlier work.

For the compound 6-acetylmorphine [6-AM], the “degradation in the absence of sera” value in data set [1] (DPBS pH 7.4, 4 °C) was “No degradation”. The t1/2 in data set [2] is 22 to 26 min. In addition, the “hydrolysis of 6-AM in dilute sera” value in data set [3] (normal mouse sera, ≥1:200 dilutions, 4 °C) is recorded as “not observed”.
For `[2H]C([2H])([2H])N1CCC23c4c5ccc(O)c4OC2C(OC(C)=O)C=CC3C1C5` (stereo not shown) [D3-6-AM], the “binding to the plasma proteins” value in the data set with plasma proteins [4] is about 0%.
For `[2H]C([2H])([2H])N1CCC23c4c5ccc(O)c4OC2C(O)C=CC3C1C5` (stereo not shown) [D3-morphine], the “binding to the plasma proteins” value in the data set with plasma proteins [4] is about 0%.
As to `CC(=O)Oc1ccc2c3c1O[C@H]1[C@@H](OC(C)=O)C=C[C@H]4[C@@H](C2)N(C)CC[C@@]341` [heroin], in data set [1] (absence of sera, DPBS pH 7.4, 4 °C), the partial heroin hydrolysis was about 20%. Moreover, the “% heroin remained intact” value in data set [1] (after 24 h in DPBS (− Sera), pH 7.4, 4 °C) is on record as 79.9 ± 2.71%. Also, the plasma binding in the data set on plasma proteins [5] is recorded as about 35%. Also, in data set [2], the t1/2 is 3 to 4 min. In data set [3] (1:400 sera dilution with iso-OMPA and BNPP), the “amount of intact heroin” value is recorded as at least 80%. The “hydrolysis of heroin in dilute sera” value in data set [3] (normal mouse sera, all dilutions (1:25-1:400), 4 °C) is on record as “extensive hydrolysis”.
For the compound `CN1CC[C@]23c4c5ccc(O)c4O[C@H]2[C@@H](O)C=C[C@H]3[C@H]1C5` [morphine], the “degradation in the absence of sera” value in data set [1] (DPBS pH 7.4, 4 °C) was “No degradation”. The “degradation of morphine in dilute sera” value in data set [3] (normal mouse sera, ≥1:100 dilutions, 4 °C) is “not observed”.
